Results: US20130005759A1, “SMALL MOLECULE MODIFIERS OF MICRORNA MIR-122” (North Carolina State University, priority 2010, published 2013)

Key:
pri-miR-122 = test: quantitative RT PCR of pri-miR-122 in Huh7 cells; type: cell-based, human; conditions: Huh7, 10 μM, 48 hours, normalized to DMSO
Protocol: (§1) The activity of the small molecule modifiers was analyzed by quantitative RT PCR in order to measure their direct effects on miR-122 expression levels in Huh7 cells. […] All experiments were conducted in triplicate, and the data was normalized to a DMSO control.
Each treatment was conducted in triplicate to ensure statistical validity. Cells were then incubated at 37° C. for 48 hours (DMEM, 5% CO2). The media was removed, and cells were washed with PBS buffer (2×2 mL, pH 7.4) followed by RNA isolation with the mirPremier™ microRNA Isolation Kit (Aldrich). The RNA was quantified using a Nanodrop ND-1000 spectrophotometer and 10 ng of each RNA sample was reverse transcribed using the TaqMan™ microRNA Reverse Transcription Kit (Applied Biosystems) in conjunction with either the miR-122 or miR-21 TaqMan™ RT primer (16° C., 30 min; 42° C., 30 min; 85° C., 5 min). Quantitative Real Time PCR was conducted with a TaqMan™ 2× Universal PCR Master Mix and the appropriate TaqMan™ miRNA assay (Applied Biosystems) on a BioRad MyiQ RT-PCR thermocycler (1.3 μL RT PCR product; 95° C., 10 min; followed by 40 cycles of 95° C., 15 s; 60° C. 60 s). […]

miR-122 = test: quantitative RT PCR of mature miR-122 in Huh7 cells; type: cell-based, human; conditions: Huh7, 10 μM, 48 hours
Protocol: as §1
Each treatment was conducted in triplicate to ensure statistical validity. Cells were then incubated at 37° C. for 48 hours (DMEM, 5% CO2). The media was removed, and cells were washed with PBS buffer (2×2 mL, pH 7.4) followed by RNA isolation with the mirPremier™ microRNA Isolation Kit (Aldrich). The RNA was quantified using a Nanodrop ND-1000 spectrophotometer and 10 ng of each RNA sample was reverse transcribed using the TaqMan™ microRNA Reverse Transcription Kit (Applied Biosystems) in conjunction with either the miR-122 or miR-21 TaqMan™ RT primer (16° C., 30 min; 42° C., 30 min; 85° C., 5 min). Quantitative Real Time PCR was conducted with a TaqMan™ 2× Universal PCR Master Mix and the appropriate TaqMan™ miRNA assay (Applied Biosystems) on a BioRad MyiQ RT-PCR thermocycler (1.3 μL RT PCR product; 95° C., 10 min; followed by 40 cycles of 95° C., 15 s; 60° C. 60 s). Threshold cycles were used to determine miRNA copy numbers, and the levels of miR-122 and miR-21 were compared via determination of threshold cycle (Ct) and conversion to copy number (copy number=10[(Ct−37.4)/−3.3]).^17 The data was then normalized to the DMSO control. The samples were also analyzed by real time PCR for the presence of pri-miR-122 transcript using the previously described primers (5′ […] 3′ (SEQ ID NO:5) and 5′ […] 3′ (SEQ ID NO:6); IDT DNA) and iQ SYBR Green Supermix for the real time PCR (95° C., 3 min; followed by 40 cycles of 95° C., 15 s; 60° C. 60 s).^14

[1] = test system: hepatitis C virus (HCV) genotype 1a H77c RNA; test: HCV replication in Huh7 cells (HCV RNA by quantitative RT PCR); type: cell-based; conditions: Huh7, 10 μM (antagomir transfected), 48 hours
Protocol: Aberrantly regulated miR-122 is involved in the development of heptocellular carcinoma (HCC). miR-122 is a cellular component required by hepatitis C virus (HCV) for viral replication. […] Due to the efficient down-regulation of miRNA-122 by the small molecule inhibitors 1 and 2, both compounds were tested for their ability to inhibit HCV replication in Huh7 cells. The pHtat2Neo/QR/KR/FV/SI plasmid (provided by Dr. Stanley Lemon of University of Texas Medical Branch (UTMB)) was used to generate genotype 1a H77c RNA, which was subsequently transfected into Huh7 cells.^16 The cells were then either transfected with a miR-122 antagomir (positive control), or treated with compounds 1 and 2 (10 μM), or DMSO (negative control). After 48 hours, total RNA was isolated and HCV RNA levels were measured by quantitative RT PCR (FIG. 7). In agreement with previous reports, the antagomir reduced HCV RNA levels to 20%.^6 Moreover, the small molecule miR-122 inhibitors 1 and 2 elicited a reduction in viral load to 48% and 47%, respectively.
The pHtat2Neo/QR/KR/FV/SI plasmid (provided by Dr. Stanley Lemon)^16 was linearized using XbaI (10 units, 50 μL reaction; New England Biolabs), followed by transcription with T7 RNA Polymerase (6 h, 37° C.), and purification on Microcon 10 columns. Huh7 cells were then grown to 60% confluency in a 6 well plate and transfected with 1 μg RNA using X-tremGENE transfection reagent (Roche Applied Science, 3:2 reagent/RNA ratio) in Opti-Mem media (Invitrogen). After a 4 hour incubation at 37° C., the transfection media was removed and replaced with standard growth media (2 mL) supplemented with 10 μM of 1 or 2 (1% DMSO final concentration). All experiments were conducted in triplicate for statistical validation. […] Quantitative RT-PCR was then performed as previously described using the general HCV RT-PCR Primers (5′: […] 3′ (SEQ ID NO:7) and 5′ […] 3′) (SEQ ID NO:8) and GADPH primers (5′ […] 3′ (SEQ ID NO:9) and 5′ […] 3′) (SEQ ID NO:10) as a standard control.

For `O=C(Nc1ccc2ccccc2c1)c1ccc(Cl)cc1Cl` [Compound 1], the “pri-miR-122 down-regulation to (remaining level)” value (pri-miR-122) was 22%, the “knock-down of mature miR-122 levels relative to DMSO treated cells” value (miR-122) was 45% and the “HCV RNA levels / viral load reduced to” value [1] was 48%.
In the case of `O=S(=O)(c1ccc2c(c1)CCCN2)N1CCC[C@H]2CCCC[C@@H]21` [Compound 2], the “pri-miR-122 down-regulation to (remaining level)” value (pri-miR-122) is reported as 3%, the “knock-down of mature miR-122 levels relative to DMSO treated cells” value (miR-122) is reported as 72% and the “HCV RNA levels / viral load reduced to” value [1] is reported as 47%.
